Results published in patent EP4647433A1, “SHP2 INHIBITOR AND USES THEREOF” (Kanaph Therapeutics Inc., priority 2023, dated 2024).
Like-named read-outs stand apart in the source and are kept apart here.

Legend:
phospho-ERK = phospho-ERK assay (AlphaLisa) in H358 cells; assay type: cell-based; settings: Homo sapiens, NCI-H358, 1.5 hours incubation, read-out: pERK assay (IC50)
Experimental: H358 [20,000 cell/well] was contained in 40 µL of the cell culture solution (RPMI, 10% FBS, penicillin, streptomycin) and placed on a 384-well plate. After 24 hours, the serially diluted compound according to the Examples (concentration of minimum 0.13 nM, maximum 10 µM) was contained in 10 µL of the cell culture solution, put into wells containing cells, and incubated in a cell incubator for 1.5 hours. As a positive control group, the selective SHP2 inhibitor, TNO155 (Chemietek, US; concentration ranging from 0.13 nM to 10 µM) was used.
Thereafter, phospho-ERK was labeled using an AlphaLisa system from PerkinElmer according to the manufacturer's instructions, and then fluorescence (680 nm excitation wavelength, 615 nm emission wavelength) values were measured using a Varioskan equipment from Thermo. IC50 values were obtained using Graphad's Prism from the measured values depending on the concentration.
Intracellular SHP2 activity can be confirmed by measuring the degree of phosphorylation of ERK (extracellular signal regulated kinase), which represents Ras/Raf/ERK, a downstream signal pathway of SHP2. Inhibition of ERK phosphorylation by SHP2 inhibitors was confirmed through phospho-ERK analysis, which confirmed that the SHP2 inhibitors of the present disclosure have excellent activity in inhibiting ERK phosphorylation mediated by SHP2.

SHP2 = molecular target: T1, SHP2 (Homo sapiens, UniProt Q06124); experiment: Phosphatase assay (PTPase assay, DiFMUP substrate); assay type: biochemical
T1 construct: SHP2 (full length, diluted to 100 pM final concentration in reaction buffer, BPS bioscience, US); purchased BPS bioscience, US
T1 sequence (Q06124 1-593): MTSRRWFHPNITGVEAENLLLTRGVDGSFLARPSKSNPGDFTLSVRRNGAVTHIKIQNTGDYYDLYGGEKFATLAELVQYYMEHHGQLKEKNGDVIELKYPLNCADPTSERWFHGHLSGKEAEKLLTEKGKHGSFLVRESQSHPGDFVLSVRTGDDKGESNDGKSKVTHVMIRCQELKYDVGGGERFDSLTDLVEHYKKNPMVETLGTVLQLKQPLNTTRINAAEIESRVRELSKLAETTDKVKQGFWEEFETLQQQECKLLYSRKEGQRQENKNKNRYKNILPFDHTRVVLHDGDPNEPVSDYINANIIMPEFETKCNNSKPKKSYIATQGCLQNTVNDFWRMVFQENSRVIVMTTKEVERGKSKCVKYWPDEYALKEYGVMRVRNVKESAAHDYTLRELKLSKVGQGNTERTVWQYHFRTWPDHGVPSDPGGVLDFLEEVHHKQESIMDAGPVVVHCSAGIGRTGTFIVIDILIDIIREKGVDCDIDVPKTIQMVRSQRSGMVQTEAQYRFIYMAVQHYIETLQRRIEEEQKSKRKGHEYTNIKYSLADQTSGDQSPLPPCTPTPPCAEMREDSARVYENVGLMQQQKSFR
Experimental: IC50 values were measured using 6,8-difluoro-4-methylumbelliferyl phosphate (DiFMUP) as a substrate. The reaction was performed in a 384-well plate, and fluorescence measurement values were obtained using an EnVision plate reader from PerkinElmer.
SHP2 (full length, diluted to 100 pM final concentration in reaction buffer, BPS bioscience, US) was incubated with the SHP2 activating peptide in reaction buffer (60 mM HEPES (pH 7.2), 75 mM NaCl, 75 mM KCl, 1 mM EDTA, 5 mM DTT, 0.05% P-20) for 30 minutes to activate SHP2. After activation, DMSO [1% (V/V) or the compound according to the Examples (concentration ranging from 0.6 nM to 10 µM)] was added. As a positive control group, the selective SHP2 inhibitors SHP099 (6-(4-amino-4-methylpiperidin-1-yl)-3-(2,3-dichlorophenyl)pyrazin-2-amine, FOCUS bioscience, Austrailia; concentration ranging from 0.6 nM to 10 µM) and TNO155 ((3S,4S)-8-(6-amino-5-((2-amino-3-chloropyridin-4-yl)thio)pyrazin-2-yl)-3-methyl-2-oxa-8-azaspiro[4.5]decan-4-amine, Chemietek, US; concentration ranging from 0.6 nM to 10 µM) were used. [drawing 184]
DiFMUP (80 µM) was added to the reaction and incubated for a total of 2 hours to allow for the reaction to proceed. Thereafter, fluorescence (340 nm excitation, 450 nm emission) values were measured. IC50 values were obtained using Graphad's Prism from the measured values depending on the concentration.
In the phosphatase assay (PTPase assay), when an IC50 value was 100 nM or more, + was indicated, when an IC50 value was 3 nM or more and less than 100 nM, ++ was indicated, and when an IC50 value was less than 3 nM, +++ was indicated.

H358 cells = experiment: Cell viability (3D spheroid, 3D CellTiter-Glo); assay type: cell-based; settings: Homo sapiens, NCI-H358, 120 h; H358 spheroids, 5 days treatment
Experimental: Human non-small cell lung cancer cell line H358 cells were purchased from the Korean Cell Line Bank. Cancer cell lines were cultured in the recommended RPMI-1640 medium supplemented with 10% fetal bovine serum (FBS) and 1% penicillin/streptomycin. Monolayer-cultured cancer cell lines were detached by treatment with Trypsin/EDTA, and 100 µL of cell suspension containing 4 x 10^3 cells was each dispensed into SPL3D™ Cell Floater, 96-well round plate, through cell line counting. After culturing for 72 hours to form spheroid, the cells were individually treated with the compounds according to the Examples, which had been serially diluted (minimum 1.5 nM, maximum 10 µM in concentration), and then cultured in a cell incubator for 5 days. To analyze cell viability, the cells were treated with 50 uL of 3D CellTiter-Glo, stirred for 5 minutes at 500 rpm in a plate shaker from Thermo Fisher Scientific, and incubated for 25 minutes at room temperature. Then, the luminescent values were measured using a Varioskan equipment from Thermo Fisher Scientific. IC50 values were obtained using GraphPad's Prism from the measured values depending on the concentration.
In the cell viability assay, when an IC50 value was 50 nM or more, + was indicated, when an IC50 value was 10 nM or more and less than 50 nM, ++ was indicated, and when an IC50 value was less than 10 nM, +++ was indicated.

[1] = Brain-plasma Pharmacokinetics; settings: male, CD-1 (ICR), mouse, brain/plasma, 20 mg/kg
Experimental: Nine male CD-1 mice (ICR mouse) aged 6 to 9 weeks were treated with the compounds according to the Examples at a concentration of 20 mg/kg. 0.025 mL of blood and brain tissue were collected at 1 hour, 8 hours, and 24 hours post-treatment, respectively. The collected blood was placed in an EDTA-K2 tube, centrifuged at 4°C at 3,200 x g for 10 minutes, and the supernatant plasma was collected. The brain tissue samples were collected immediately after euthanizing the CD-1 mice after blood collection and performing cardiac perfusion with cold saline. After collection, the brain tissues were washed with cold saline, wiped and dried, weighed, and homogenized using a homogenization buffer (15 mM PBS (pH 7.4): MeOH = 2:1) at a ratio of 1:3 (1 g of tissue to 3 mL of buffer, dilution ratio 4). Plasma and homogenized brain tissue samples were each transferred to a polypropylene microcentrifuge tube and stored at -60°C or lower. The concentration of compounds distributed in plasma and brain tissue was analyzed using LC-MS/MS, and the distribution in brain tissue compared to plasma was calculated as follows. Brain-to-plasma ratio = AUC(0-t) brain tissue /AUC(0-t) plasma [formula]
In the Brain-plasma Pharmacokinetics assay, when a brain-to-plasma ratio value was 0.05 or more and less than 0.1, + was indicated, when a brain-to-plasma ratio value was 0.1 or more and less than 0.25, ++ was indicated, and when a brain-to-plasma ratio value was more than 0.25, +++ was indicated.

[2] = full length SHP2 100 pM activated with SHP2 activating peptide, DiFMUP 80 µM, 2 hours, read-out: PTPase assay (IC50)

SMILES | IC50 (phospho-ERK) | IC50 (SHP2; [2]) | IC50 (H358 cells) | Kp at 24 h [1] | IC50 (SHP2; read-out: PTPase assay (IC50), full length SHP2 100 pM activated with SHP2 activating peptide, DiFMUP 80 µM, 2 hours) | IC50 (SHP2)
COCCn1cnc2ccc(Sc3ncc(N4CCC5(CC4)Cc4ccccc4[C@H]5N)nc3N)c(Cl)c2c1=O [Example 8, (S)-6-((3-amino-5-(1-amino-1,3-dihydrospiro[indene-2,4'-piperidin]-1'-yl)pyrazin-2-yl)thio)-5-chloro-3-(2-methoxyethyl)quinazolin-4(3H)-one] | < 45 nM | < 3 nM |  |  |  | 
COC(C)(C)Cn1cnc2ccc(Sc3cnc(N4CCC5(CC4)Cc4ccccc4[C@H]5N)nn3)c(Cl)c2c1=O [Example 34, (S)-6-((3-(1-amino-1,3-dihydrospiro[indene-2,4'-piperidin]-1'-yl)-1,2,4-triazin-6-yl)thio)-5-chloro-3-(2-methoxy-2-methylpropyl)quinazolin-4(3H)-one] |  | < 3 nM | < 10 nM | 0.1 to 0.25 |  | 
C[C@@H]1OCC2(CCN(c3cnc(Sc4ccc5ccn(C)c(=O)c5c4Cl)cn3)CC2)[C@@H]1N [Example 15, 7-((5-((3S,4S)-4-amino-3-methyl-2-oxa-8-azaspiro[4.5]decan-8-yl)pyrazin-2-yl)thio)-8-chloro-2-methylisoquinolin-1(2H)-one] |  | < 3 nM | 10 to 50 nM | 0.05 to 0.1 |  | 
Cn1cnc2ccc(Sc3cnc(N4CCC5(CC4)Cc4ncsc4[C@H]5N)cn3)c(Cl)c2c1=O [Example 2, (S)-6-((5-(6-amino-4,6-dihydrospiro[cyclopenta[d]thiazole-5,4'-piperidin]-1'-yl)pyrazin-2-yl)thio)-5-chloro-3-methylquinazolin-4(3H)-one] | < 45 nM |  | < 10 nM |  | < 3 nM | 
N[C@@H]1c2scnc2CC12CCN(c1cnc(Sc3ccc4nc[nH]c(=O)c4c3Cl)cn1)CC2 [Example 1, (S)-6-((5-(6-amino-4,6-dihydrospiro[cyclopenta[d]thiazole-5,4'-piperidin]-1'-yl)pyrazin-2-yl)thio)-5-chloroquinazolin-4(3H)-one] | < 45 nM | < 3 nM |  |  |  | 
C[C@@H]1OCC2(CCN(c3cnc(Sc4ccc5ncn(CCC#N)c(=O)c5c4Cl)cn3)CC2)[C@@H]1N [Example 24, 3-(6-((5-((3S,4S)-4-amino-3-methyl-2-oxa-8-azaspiro[4.5]decan-8: yl)pyrazin-2-yl)thio)-5-chloro-4-oxoquinazolin-3(4H)-yl)propanenitrile] |  |  | 10 to 50 nM |  |  | < 3 nM
N[C@@H]1c2ccccc2OC12CCN(c1cnc(Sc3ccc4ncn(-c5ccccc5)c(=O)c4c3Cl)cn1)CC2 [Example 52, (R)-6-((5-(3-amino-3H-spiro[benzofuran-2,4'-piperidin]-1'-yl)pyrazin-2-yl)thio)-5-chloro-3-phenylquinazolin-4(3H)-one] |  |  |  | > 0.25 |  | 
Cn1cnc2ccc(Sc3ncc(N4CCC5(CC4)Cc4ccccc4[C@H]5N)nc3N)c(Cl)c2c1=O [Example 10] | < 45 nM | < 3 nM |  |  |  | 

The next lines start with results.

IC50 (phospho-ERK) | IC50 (SHP2; [2]) | IC50 (H358 cells) | Kp at 24 h [1] | SMILES | IC50 (SHP2; read-out: PTPase assay (IC50), full length SHP2 100 pM activated with SHP2 activating peptide, DiFMUP 80 µM, 2 hours) | IC50 (SHP2)
< 45 nM | < 3 nM | < 10 nM |  | CC(C)n1cnc2ccc(Sc3cnc(N4CCC5(CC4)Cc4ncsc4[C@H]5N)cn3)c(Cl)c2c1=O [Example 4, (S)-6-((5-(6-amino-4,6-dihydrospiro[cyclopenta[d]thiazole-5,4'-piperidin]-1'-yl)pyrazin-2-yl)thio)-5-chloro-3-isopropylquinazolin-4(3H)-one] |  | 
45 to 1500 nM | < 3 nM | 10 to 50 nM |  | COC(C)(C)C(F)n1cnc2ccc(Sc3cnc(N4CCC5(CC4)CO[C@@H](C)[C@H]5N)cn3)c(Cl)c2c1=O (stereo partly drawn) [Example 28, 6-((5-((3S,4S)-4-amino-3-methyl-2-oxa-8-azaspiro[4.5]decan-8-yl)pyrazin-2-yl)thio)-5-chloro-3-(1-fluoro-2-methoxy-2-methylpropyl)quinazolin-4(3H)-one] |  | 
< 45 nM | < 3 nM | < 10 nM |  | CCn1cnc2ccc(Sc3cnc(N4CCC5(CC4)Cc4ncsc4[C@H]5N)cn3)c(Cl)c2c1=O [Example 3, (S)-6-((5-(6-amino-4,6-dihydrospiro[cyclopenta[d]thiazole-5,4'-piperidin]-1'-yl)pyrazin-2-yl)thio)-5-chloro-3-ethylquinazolin-4(3H)-one] |  | 
 | < 3 nM | < 10 nM |  | Cn1cnc2ccc(Sc3cnc(N4CCC5(CC4)Cc4ncccc4[C@H]5N)cn3)c(Cl)c2c1=O [Example 6, (S)-6-((5-(5-amino-5,7-dihydrospiro[cyclopenta[b]pyridine-6,4'-piperidin]-1'-yl)pyrazin-2-yl)thio)-5-chloro-3-methylquinazolin-4(3H)-one] |  | 
< 45 nM | < 3 nM |  |  | COC(C)Cn1cnc2ccc(Sc3ncc(N4CCC5(CC4)Cc4ccccc4[C@H]5N)nc3N)c(Cl)c2c1=O (stereo partly drawn) [Example 9, 6-((3-amino-5-((S)-1-amino-1,3-dihydrospiro[indene-2,4'-piperidin]-1'-yl)pyrazin-2-yl)thio)-5-chloro-3-(2-methoxypropyl)quinazolin-4(3H)-one] |  | 
45 to 1500 nM | < 3 nM | 10 to 50 nM |  | COC(C)Cn1c(C)nc2ccc(Sc3cnc(N4CCC5(CC4)CO[C@@H](C)[C@H]5N)cn3)c(Cl)c2c1=O (stereo partly drawn) [Example 39, 6-((5-((3S,4S)-4-amino-3-methyl-2-oxa-8-azaspiro[4.5]decan-8-yl)pyrazin-2-yl)thio)-5-chloro-3-(2-methoxypropyl)-2-methylquinazolin-4(3H)-one] |  | 
 |  |  | > 0.25 | Cn1cnc2ccc(Sc3cnc(N4CCC5(CC4)Oc4ccccc4[C@H]5N)cn3)c(Cl)c2c1=O [Example 51, (R)-6-((5-(3-amino-3H-spiro[benzofuran-2,4'-piperidin]-1'-yl)pyrazin-2-yl)thio)-5-chloro-3-methylquinazolin-4(3H)-one] |  | 
